Among the data in ChEMBL document CHEMBL1629662, “Antimicrobial activity of prulifloxacin tested against a worldwide collection of gastroenteritis-producing pathogens, including those causing traveler's diarrhea” (2009) are Activity values, retold here.

The test relates to Yersinia pseudotuberculosis. Briefly: Antibacterial activity against Yersinia pseudotuberculosis assessed as percent resistant isolates by broth microdilution method. In kind it is functional. (Dilution methods test growth across graded concentrations, often in twofold steps.)

On to `CCn1cc(C(=O)O)c(=O)c2ccc(C)nc21` [NALIDIXIC ACID], for which the Activity is on record as 6.5%. To `C[C@H]1c2cccc(O)c2C(=O)C2=C(O)[C@]3(O)C(=O)C(C(N)=O)=C(O)[C@@H](N(C)C)[C@@H]3[C@@H](O)[C@@H]21.O` [DOXYCYCLINE] belongs 4.3%; to `O=C(O)c1cn(C2CC2)c2cc(N3CCNCC3)c(F)cc2c1=O` [CIPROFLOXACIN], 0%; to `CC1(C)S[C@@H]2[C@H](NC(=O)[C@H](N)c3ccccc3)C(=O)N2[C@H]1C(=O)O` [AMPICILLIN], 91.3%. For `CC1Sc2c(C(=O)O)c(=O)c3cc(F)c(N4CCNCC4)cc3n21` (stereo not given) [ULIFLOXACIN], the Activity worked out at 0%.
